Results from patent publication US6407124B1, “Carbon substituted aminothiazole inhibitors of cyclin dependent kinases” (Bristol-Myers Squibb Company, priority 1998, dated 2002).

| SMILES | melting point [°C] |
| --- | --- |
| CC(=O)Nc1ncc(/C=C/c2ncc(C(C)(C)C)o2)s1 [Example 2, N-[(E)-5-(2-(5-t-butyl-oxazol-2-yl)-vinyl)-thiazol-2-yl]-acetamide] | 275 |
| CCOC(=O)/C=C/c1cnc(NC(C)=O)s1 [Example 1, Ethyl 3-((E)-2-acetamido-thiazol-5-yl)-acrylate] | 239 to 240 |
